Measurements: patent publication US9579303B2, “Compositions containing polysaccharides” (DSM IP ASSETS B.V., priority 2005, dated 2017)

Experiments:
[1] = Flowability: time for 100 g to flow through an 11-mm funnel orifice; assay type: physicochemical; conditions: 100 g through an 11-mm orifice of a funnel
Method: The flowability was determined by the time needed to have 100 g of genistein crystals or genistein granules flowing through an 11-mm orifice of a funnel.

[2] = Granule size distribution by sieve analysis; assay type: physicochemical

O=c1c(-c2ccc(O)cc2)coc2cc(O)cc(O)c12 [Genistein crystal, genistein]
Flowability [1]: No flow | Granule Particle Size Distribution <150 μm ([2]; sieve fraction <150 μm): 7.2% | Granule Particle Size Distribution >150 μm ([2]; sieve fraction >150 μm): 28.2% | Granule Particle Size Distribution >250 μm ([2]; sieve fraction >250 μm): 50% | Granule Particle Size Distribution >425 μm ([2]; sieve fraction >425 μm): 14.5% | Granule Particle Size Distribution >600 μm ([2]; sieve fraction >600 μm): 0% | Granule Particle Size Distribution >800 μm ([2]; sieve fraction >800 μm): 0% | Granule Particle Size Distribution >850 μm ([2]; sieve fraction >850 μm): 0.1%
